tested on: JAK1-dependent STAT6 phosphorylation downstream of IL-13 stimulation in TF-1 human erythroleukemia cells; experiment: cells; details: TF-1, read-out: IL-13-pSTAT6 IC50

Compound	IC50
CC(C)COC(=O)N1CC=C(c2cccn3nc(Nc4ccc(C(=O)N(C)C5CCN(C)CC5)cc4)nc23)CC1 [Example 2-345, isobutyl 4-[2-[4-[methyl-(1-methyl-4-piperidyl)carbamoyl]anilino]-[1,2,4]triazolo[1,5-a]pyridin-8-yl]-3,6-dihydro-2H-pyridine-1-carboxylate]	23.7 nM
CN1CCC(N(C)C(=O)c2ccc(Nc3nc4c(C5=CCN(C(=O)OC6CCOC6)CC5)cccn4n3)cc2)CC1 (stereo not drawn) [Example 2-346, tetrahydrofuran-3-yl 4-[2-[4-[methyl-(1-methyl-4-piperidyl)carbamoyl]anilino]-[1,2,4]triazolo[1,5-a]pyridin-8-yl]-3,6-dihydro-2H-pyridine-1-carboxylate]	89.1 nM
CN1CCC(N(C)C(=O)c2ccc(Nc3nc4c(C5=CCN(C(=O)C6CCCCC6)CC5)cccn4n3)cc2)CC1 [Example 2-348, 4-[[8-[1-(cyclohexanecarbonyl)-3,6-dihydro-2H-pyridin-4-yl]-[1,2,4]triazolo[1,5-a]pyridin-2-yl]amino]-N-methyl-N-(1-methyl-4-piperidyl)benzamide]	34.7 nM
CN1CCC(N(C)C(=O)c2ccc(Nc3nc4c(C5=CCN(C(=O)[C@H]6CC[C@H](C#N)CC6)CC5)cccn4n3)cc2)CC1 [Example 2-350, 4-[[8-[1-(4-cyanocyclohexanecarbonyl)-3,6-dihydro-2H-pyridin-4-yl]-[1,2,4]triazolo[1,5-a]pyridin-2-yl]amino]-N-methyl-N-(1-methyl-4-piperidyl)benzamide]	719 nM
CN1CCC(N(C)C(=O)c2ccc(Nc3nc4c(C5=CCN(C(=O)OCc6ccccc6)CC5)cccn4n3)cc2)CC1 [Example 2-351, benzyl 4-[2-[4-[methyl-(1-methyl-4-piperidyl)carbamoyl]anilino]-[1,2,4]triazolo[1,5-a]pyridin-8-yl]-3,6-dihydro-2H-pyridine-1-carboxylate]	52.6 nM
CN1CCC(N(C)C(=O)c2ccc(Nc3nc4c(C5=CCN(C(=O)OCC6CC6)CC5)cccn4n3)cc2)CC1 [Example 2-353, cyclopropylmethyl 4-[2-[4-[methyl-(1-methyl-4-piperidyl)carbamoyl]anilino]-[1,2,4]triazolo[1,5-a]pyridin-8-yl]-3,6-dihydro-2H-pyridine-1-carboxylate]	32.7 nM
CCOC(=O)N1CC=C(c2cccn3nc(Nc4ccc(C(=O)N5CCC(c6ccccn6)CC5)cc4)nc23)CC1 [Example 2-358, ethyl 4-[2-[4-[4-(2-pyridyl)piperidine-1-carbonyl]anilino]-[1,2,4]triazolo[1,5-a]pyridin-8-yl]-3,6-dihydro-2H-pyridine-1-carboxylate]	41.3 nM
CCOC(=O)N1CC=C(c2cccn3nc(Nc4ccc(C(=O)NC5CCNCC5)cc4)nc23)CC1 [Example 2-360, ethyl 4-[2-[4-(4-piperidylcarbamoyl)anilino]-[1,2,4]triazolo[1,5-a]pyridin-8-yl]-3,6-dihydro-2H-pyridine-1-carboxylate]	411 nM
CCOC(=O)N1CC=C(c2cccn3nc(Nc4ccc(C(=O)N(C)Cc5ccncc5)cc4)nc23)CC1 [Example 2-361, ethyl 4-[2-[4-[methyl(4-pyridylmethyl)carbamoyl]anilino]-[1,2,4]triazolo[1,5-a]pyridin-8-yl]-3,6-dihydro-2H-pyridine-1-carboxylate]	8.9 nM
CCOC(=O)N1CC=C(c2cccn3nc(Nc4ccc(C(=O)NCCC5CCCN5)cc4)nc23)CC1 (stereo not drawn) [Example 2-362, ethyl 4-[2-[4-(2-pyrrolidin-2-ylethylcarbamoyl)anilino]-[1,2,4]triazolo[1,5-a]pyridin-8-yl]-3,6-dihydro-2H-pyridine-1-carboxylate]	229 nM
CCOC(=O)N1CC=C(c2cccn3nc(Nc4ccc(C(=O)N5CC6(CCNC6)C5)cc4)nc23)CC1 [Example 2-372, ethyl 4-[2-[4-(2,7-diazaspiro[3.4]octane-2-carbonyl)anilino]-[1,2,4]triazolo[1,5-a]pyridin-8-yl]-3,6-dihydro-2H-pyridine-1-carboxylate]	296 nM
CCOC(=O)N1CC=C(c2cccn3nc(Nc4ccc(C(=O)N(C)CCN)cc4)nc23)CC1 [Example 2-374, ethyl 4-[2-[4-[2-aminoethyl(methyl)carbamoyl]anilino]-[1,2,4]triazolo[1,5-a]pyridin-8-yl]-3,6-dihydro-2H-pyridine-1-carboxylate]	62.5 nM
O=C(NCC1CCCCN1)c1ccc(Nc2nc3c(C4=CCN(C(=O)CCC(F)(F)F)CC4)cccn3n2)cc1 (stereo not drawn) [Example 2-385, N-(2-piperidylmethyl)-4-[[8-[1-(4,4,4-trifluorobutanoyl)-3,6-dihydro-2H-pyridin-4-yl]-[1,2,4]triazolo[1,5-a]pyridin-2-yl]amino]benzamide]	174 nM

Next, values leading:

IC50	Compound
55.5 nM	O=C(CCC(F)(F)F)N1CC=C(c2cccn3nc(Nc4ccc(C(=O)N5CCC6(CCCN6)C5)cc4)nc23)CC1 (stereo not drawn) [Example 2-377, 1-[4-[2-[4-(1,7-diazaspiro[4.4]nonane-7-carbonyl)anilino]-[1,2,4]triazolo[1,5-a]pyridin-8-yl]-3,6-dihydro-2H-pyridin-1-yl]-4,4,4-trifluoro-butan-1-one]
238 nM	O=C(CCC(F)(F)F)N1CC=C(c2cccn3nc(Nc4ccc(C(=O)N5CCC6(CCCCN6)C5)cc4)nc23)CC1 (stereo not drawn) [Example 2-378, 1-[4-[2-[4-(2,6-diazaspiro[4.5]decane-2-carbonyl)anilino]-[1,2,4]triazolo[1,5-a]pyridin-8-yl]-3,6-dihydro-2H-pyridin-1-yl]-4,4,4-trifluoro-butan-1-one]
282 nM	O=C(CCC(F)(F)F)N1CC=C(c2cccn3nc(Nc4ccc(C(=O)N5CCC6(CNC6)C5)cc4)nc23)CC1 [Example 2-379, 1-[4-[2-[4-(2,6-diazaspiro[3,4]octane-6-carbonyl)anilino]-[1,2,4]triazolo[1,5-a]pyridin-8-yl]-3,6-dihydro-2H-pyridin-1-yl]-4,4,4-trifluoro-butan-1-one]
38.4 nM	O=C(CCC(F)(F)F)N1CC=C(c2cccn3nc(Nc4ccc(C(=O)N5CCC6(CC5)CNCCO6)cc4)nc23)CC1 [Example 2-380, 4,4,4-trifluoro-1-[4-[2-[4-(1-oxa-4,9-diazaspiro[5.5]undecane-9-carbonyl)anilino]-[1,2,4]triazolo[1,5-a]pyridin-8-yl]-3,6-dihydro-2H-pyridin-1-yl]butan-1-one]
376 nM	O=C(CCC(F)(F)F)N1CC=C(c2cccn3nc(Nc4ccc(C(=O)N5CCCC6(CCNCC6)C5)cc4)nc23)CC1 [Example 2-382, 1-[4-[2-[4-(2,9-diazaspiro[5.5]undecane-2-carbonyl)anilino]-[1,2,4]triazolo[1,5-a]pyridin-8-yl]-3,6-dihydro-2H-pyridin-1-yl]-4,4,4-trifluoro-butan-1-one]
9 nM	O=C(CCC(F)(F)F)N1CC=C(c2cccn3nc(Nc4ccc(C(=O)N5CCCC6(CCCCN6)C5)cc4)nc23)CC1 (stereo not drawn) [Example 2-383, 1-[4-[2-[4-(1,8-diazaspiro[5.5]undecane-8-carbonyl)anilino]-[1,2,4]triazolo[1,5-a]pyridin-8-yl]-3,6-dihydro-2H-pyridin-1-yl]-4,4,4-trifluoro-butan-1-one]
93 nM	O=C(CCC(F)(F)F)N1CC=C(c2cccn3nc(Nc4ccc(C(=O)N5CCCC6(CCCN6)CC5)cc4)nc23)CC1 (stereo not drawn) [Example 2-384, 1-[4-[2-[4-(1,9-diazaspiro[4.6]undecane-9-carbonyl)anilino]-[1,2,4]triazolo[1,5-a]pyridin-8-yl]-3,6-dihydro-2H-pyridin-1-yl]-4,4,4-trifluoro-butan-1-one]
155 nM	O=C(CCC(F)(F)F)N1CC=C(c2cccn3nc(Nc4ccc(C(=O)N5CCC6CNCC65)cc4)nc23)CC1 (stereo not drawn) [Example 2-386, 1-[4-[2-[4-(3,3a,4,5,6,6a-hexahydro-2H-pyrrolo[2,3-c]pyrrole-1-carbonyl)anilino]-[1,2,4]triazolo[1,5-a]pyridin-8-yl]-3,6-dihydro-2H-pyridin-1-yl]-4,4,4-trifluoro-butan-1-one]
147 nM	O=C(CCC(F)(F)F)N1CC=C(c2cccn3nc(Nc4ccc(C(=O)N5C[C@@H]6CCN[C@@H]6C5)cc4)nc23)CC1 [Example 2-387, 1-[4-[2-[4-[(3aS,6aS)-2,3,3a,4,6,6a-hexahydro-1H-pyrrolo[2,3-c]pyrrole-5-carbonyl]anilino]-[1,2,4]triazolo[1,5-a]pyridin-8-yl]-3,6-dihydro-2H-pyridin-1-yl]-4,4,4-trifluoro-butan-1-one]
141 nM	O=C(NCC1CC12CCNCC2)c1ccc(Nc2nc3c(C4=CCN(C(=O)CCC(F)(F)F)CC4)cccn3n2)cc1 (stereo not drawn) [Example 2-388, N-(6-azaspiro[2.5]octan-2-ylmethyl)-4-[[8-[1-(4,4,4-trifluorobutanoyl)-3,6-dihydro-2H-pyridin-4-yl]-[1,2,4]triazolo[1,5-a]pyridin-2-yl]amino]benzamide]
12.6 nM	CN1CCCC(CN(C)C(=O)c2ccc(Nc3nc4c(C5=CCN(C(=O)CCC(F)(F)F)CC5)cccn4n3)cc2)C1 (stereo not drawn) [Example 2-389, N-methyl-N-[(1-methyl-3-piperidyl)methyl]-4-[[8-[1-(4,4,4-trifluorobutanoyl)-3,6-dihydro-2H-pyridin-4-yl]-[1,2,4]triazolo[1,5-a]pyridin-2-yl]amino]benzamide]
178 nM	O=C(CCC(F)(F)F)N1CC=C(c2cccn3nc(Nc4ccc(C(=O)N5CCCC(O)(CN6CCCC6)CC5)cc4)nc23)CC1 (stereo not drawn) [Example 2-390, 4,4,4-trifluoro-1-[4-[2-[4-[4-hydroxy-4-(pyrrolidin-1-ylmethyl)azepane-1-carbonyl]anilino]-[1,2,4]triazolo[1,5-a]pyridin-8-yl]-3,6-dihydro-2H-pyridin-1-yl]butan-1-one]
5.7 nM	CN1CCC2(CC1)CN(C(=O)c1ccc(Nc3nc4c(C5=CCN(C(=O)CCC(F)(F)F)CC5)cccn4n3)cc1)C2 [Example 2-391, 4,4,4-trifluoro-1-[4-[2-[4-(7-methyl-2,7-diazaspiro[3.5]nonane-2-carbonyl)anilino]-[1,2,4]triazolo[1,5-a]pyridin-8-yl]-3,6-dihydro-2H-pyridin-1-yl]butan-1-one]
217 nM	O=C(CCC(F)(F)F)N1CC=C(c2cccn3nc(Nc4ccc(C(=O)N5CC6(CNC6)C5)cc4)nc23)CC1 [Example 2-392, 1-[4-[2-[4-(2,6-diazaspiro[3.3]heptane-2-carbonyl)anilino]-[1,2,4]triazolo[1,5-a]pyridin-8-yl]-3,6-dihydro-2H-pyridin-1-yl]-4,4,4-trifluoro-butan-1-one]

Reference: US9873709B2 (priority 2013, dated 2018)
